The results in this text go back to patent US20040106651A1, “3,4-diaminopyriding tartrate and phosphate, pharmaceutical compositions and uses thereof” (priority 2001, published 2004).

A short description of the series: Stability study in hard gelatin capsules under ICH storage conditions. The series is classed as physicochemical. Conditions: for Stability under the storage conditions in accordance with the international recommendations: general statement; for Stability formulated in hard gelatin capsules: conclusion from tables I and II. As to the method:
3,4-DAP tartrate, as prepared above in example 1, was introduced into hard gelatin capsules made of gelatin of size No. 3 in a proportion of 10 mg (expressed as weight of 3,4-DAP in the free base form) per hard gelatin capsule (Hard gelatin capsules A).
In the same way and by way of comparison, hard gelatin capsules made of gelatin of size No. 3 including 10 mg of 3,4-DAP per hard gelatin capsule were prepared (Hard gelatin capsules B).
A stability study on 3,4-DAP tartrate and on 3,4-DAP, introduced respectively into hard gelatin capsules A and B, was subsequently carried out.
This study was carried out under the conditions recommended by the international recommendations for the study of the stability of active principles (International Conference on Harmonization, Draft Guideline on Stability Testing of New Drug and Product, November 1999, CPMP/ICH/2736/99).

Turning to `Nc1ccncc1N.O=P(O)(O)O` [3,4-DAP phosphate, 3,4-diaminopyridine Phosphate], the “Stability under the storage conditions in accordance with the international recommendations” value (“Stability under the storage conditions” for short) is reported as “very high stability”.

For the molecule `Nc1ccncc1N.O=C(O)C(O)C(O)C(=O)O` (centres unmarked) [3,4-DAP tartrate, 3,4-diaminopyridine Tartrate], the “Stability formulated in hard gelatin capsules” value is “great stability” and the “Stability under the storage conditions” value is recorded as “very high stability”.

`Nc1ccncc1N` [3,4-DAP, 3,4-diaminopyridine, reference compound]: the “Stability formulated in hard gelatin capsules” value is “unstable” and the “Stability under the storage conditions” value is reported as “unstable”.
